The numbers were not newly measured in patent US12048763B2, “Compositions and methods for treating sialorrhea” (priority 2021, dated 2024), which cites them from elsewhere.

Structures are written as SMILES.

The conditions of the data set: by 6 months.

`C[N+]1(C)CCC(OC(=O)C(O)(c2ccccc2)C2CCCC2)C1` (stereo not shown) [glycopyrrolate]: the “participants no longer taking the drug due to adverse effects” value is on record as 45%.
